According to patent publication US10556898B2, “Indazolyl-1,2,4-thiadiazolamines and related compounds for inhibition of Rho-associated protein kinase and the treatment of disease” (Lycera Corporation, priority 2016, dated 2020):
Where two headings read alike, the source gives them in different places.

Tests used:
ROCK1 = target: T1, ROCK1 (Homo sapiens, UniProt Q13464); test: Cell-Based Assay, ROCK1 (HAP1 knockout cells, phospho-MYPT1 Thr853 ELISA); settings: read-out: Results from Cell-Based Assay IC50 (μM) ROCK1
T1 construct: endogenous in cells; host or cells: HAP1 knockout cells
T1 sequence (Q13464 whole entry): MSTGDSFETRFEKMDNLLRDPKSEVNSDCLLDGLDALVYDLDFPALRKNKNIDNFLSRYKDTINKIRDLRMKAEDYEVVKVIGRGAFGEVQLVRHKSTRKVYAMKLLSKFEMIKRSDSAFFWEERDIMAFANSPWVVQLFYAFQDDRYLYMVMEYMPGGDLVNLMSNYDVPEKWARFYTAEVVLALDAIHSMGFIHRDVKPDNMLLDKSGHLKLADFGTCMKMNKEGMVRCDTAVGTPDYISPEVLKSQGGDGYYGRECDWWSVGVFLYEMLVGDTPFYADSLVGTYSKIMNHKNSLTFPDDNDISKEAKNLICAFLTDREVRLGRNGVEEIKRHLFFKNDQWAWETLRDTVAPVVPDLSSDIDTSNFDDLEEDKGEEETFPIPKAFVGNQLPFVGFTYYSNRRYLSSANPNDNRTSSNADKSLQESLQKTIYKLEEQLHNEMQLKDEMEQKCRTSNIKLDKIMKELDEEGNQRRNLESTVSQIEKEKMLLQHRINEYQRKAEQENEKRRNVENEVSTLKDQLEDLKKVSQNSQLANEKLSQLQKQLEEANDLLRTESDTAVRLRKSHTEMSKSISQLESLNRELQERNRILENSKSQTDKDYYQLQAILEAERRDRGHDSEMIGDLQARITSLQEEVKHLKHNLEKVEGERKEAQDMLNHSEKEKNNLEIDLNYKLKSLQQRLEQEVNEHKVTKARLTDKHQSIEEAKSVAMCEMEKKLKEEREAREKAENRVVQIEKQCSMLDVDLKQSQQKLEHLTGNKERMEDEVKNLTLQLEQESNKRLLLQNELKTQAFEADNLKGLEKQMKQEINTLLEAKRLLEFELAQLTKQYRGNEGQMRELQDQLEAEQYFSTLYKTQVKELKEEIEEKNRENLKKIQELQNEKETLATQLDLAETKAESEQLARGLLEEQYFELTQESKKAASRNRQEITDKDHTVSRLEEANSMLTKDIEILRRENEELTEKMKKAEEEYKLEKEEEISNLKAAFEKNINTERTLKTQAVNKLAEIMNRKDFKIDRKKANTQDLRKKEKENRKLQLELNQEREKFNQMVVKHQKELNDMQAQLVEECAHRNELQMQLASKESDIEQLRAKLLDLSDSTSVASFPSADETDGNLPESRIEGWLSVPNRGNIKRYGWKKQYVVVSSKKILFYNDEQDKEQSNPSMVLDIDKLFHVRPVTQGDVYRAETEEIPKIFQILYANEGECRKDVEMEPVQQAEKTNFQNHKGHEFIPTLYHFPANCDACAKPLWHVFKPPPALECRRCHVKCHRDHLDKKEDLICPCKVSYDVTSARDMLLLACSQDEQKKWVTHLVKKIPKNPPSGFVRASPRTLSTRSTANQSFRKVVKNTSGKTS
Experimental: (§1) Part II—Procedure for Determining ROCK Inhibition Ability of Test Compounds Using a Cell-Base Assay
(§2) The Cell-Based Assay for determining ROCK inhibition ability of test compounds utilized a genetically modified HAP1 cell line engineered to eliminate expression of either ROCK1 or ROCK2. In the procedure, HAP1 knockout cells are grown in Iscove's Modified Dulbecco's Medium that is additionally supplemented with 10% fetal bovine and 1x antibiotic-antimycotic mixture. Cells are plated in 96 well tissue culture plates at 1×10^5 cells/well (100 μL, of cells at 1×10^6/mL). Test compounds are solubilized in DMSO and diluted into the same media used to grow the cells. A 100 μL, aliquot of each compound dilution in media is added to each well containing the HAP1 cells and incubated at 37° C. for 30 minutes. Following compound incubation, the cells are pelleted by centrifugation at 1800 rpm for 5 minutes at 4° C. Media is removed from the cell pellet and the cells lysed and de-salted. An 80 μL, aliquot of each cell lysate is added to a single well of a 96-well high binding ELISA plate which has been pre-coated with a MYPT1 capture antibody and incubated at 4° C. overnight. The following day the ELISA plate is washed 4× with 0.05% Tween-20 in PBS. After washing, an anti-phospho-MYPT1 (Thr853) antibody is added and allowed to bind for 1 hour at room temperature. The wash step is repeated, and then an anti-rabbit HRP detection antibody is added and allowed to incubate at room temperature for 1 hour. The wash step is then repeated and 100 μL/well 1-Step™ Ultra TMB substrate is added to the ELISA plate and allowed to develop for approximately 5 minutes. The reaction is stopped by addition of H2SO4. Absorbance is read at 450 OD. Data is analyzed using GraphPad Prism software to calculate the 50% inhibitory concentration of test compound (IC50).

[1] = target: T2, GST-tagged human ROCK2 catalytic domain 1-553 (Homo sapiens, UniProt O75116); test: Isolated Enzyme Assay, ROCK2 (LANCE Ultra ULight-CREBtide FRET); format: biochemical; settings: 30 μM highest concentration tested, read-out: Results from Isolated Enzyme Assay IC50 (μM) ROCK2
T2 construct: GST-tagged human ROCK2 catalytic domain 1-553 from Carna Biosciences (Cat #01-110); purchased Carna Biosciences 01-110; host or cells: baculovirus expression system
T2 sequence (O75116 1-553): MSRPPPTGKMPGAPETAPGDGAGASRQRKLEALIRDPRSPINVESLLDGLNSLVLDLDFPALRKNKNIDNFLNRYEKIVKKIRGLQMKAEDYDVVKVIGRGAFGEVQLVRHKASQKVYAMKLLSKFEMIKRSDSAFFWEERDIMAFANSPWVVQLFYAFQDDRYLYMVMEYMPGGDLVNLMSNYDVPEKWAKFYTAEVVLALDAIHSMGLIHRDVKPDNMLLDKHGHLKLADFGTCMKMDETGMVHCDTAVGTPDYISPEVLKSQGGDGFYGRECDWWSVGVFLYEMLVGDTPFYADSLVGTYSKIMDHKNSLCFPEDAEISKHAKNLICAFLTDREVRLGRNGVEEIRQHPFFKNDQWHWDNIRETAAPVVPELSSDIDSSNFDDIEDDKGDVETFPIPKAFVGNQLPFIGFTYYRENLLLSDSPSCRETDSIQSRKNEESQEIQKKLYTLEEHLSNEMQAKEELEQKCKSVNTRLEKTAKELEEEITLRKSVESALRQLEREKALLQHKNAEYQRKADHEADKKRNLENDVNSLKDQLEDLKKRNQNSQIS
Experimental: (§3) Exemplary compounds were tested for ability to inhibit Rho-associated protein kinase isoform 1 (ROCK1) and Rho-associated protein kinase isoform 2 (ROCK2). Assay procedures and results are described below.
(§4) Part I—Procedure for Determining ROCK Inhibition Ability of Test Compounds Using an Isolated Enzyme Assay
(§5) Protein constructs were purified from a baculovirus expression system. The peptide substrate was fluorescent LANCE® Ultra ULight-CREBtide: […] (PerkinElmer, # TRF0107-D). Kinase reactions were carried out in a 10 μL volume in 384-well plates: 50 nM ULight-CREBtide substrate, 2 nM constitutively active ROCK1 or ROCK2 kinase, and test compound in DMSO (or DMSO only for controls) were diluted into assay buffer containing 50 mM Tris-HCl (pH=7.5), 10 mM MgCl2, 1 mM EGTA, 0.01% Tween-20, and 2 mM DTT such that the final concentration of DMSO was 0.5%. After a 90 minute incubation at room temperature on a shaker table, the kinase reaction was stopped by addition of 10 mM EDTA, and phosphorylation of the substrate was detected by adding 1 nM LANCE® Ultra Europium-anti-phospho-CREB (ser133) antibody (PerkinElmer, # TRF0200-D) and incubating for 60 minutes on a shaker at room temperature. The fluorescence resonance energy transfer (FRET) signals were read and analyzed on an Envision™ 2103 Multilabel Reader (Perkin Elmer). The concentration of test compound required to inhibit substrate phosphorylation by 50% (the IC50) was calculated by non-linear regression using GraphPad PRIZM.

ROCK2 = target: T3, ROCK2 (Homo sapiens, UniProt O75116); test: Cell-Based Assay, ROCK2 (HAP1 knockout cells, phospho-MYPT1 Thr853 ELISA); settings: read-out: Results from Cell-Based Assay IC50 (μM) ROCK2
T3 construct: endogenous in cells; host or cells: HAP1 knockout cells
T3 sequence (O75116 whole entry): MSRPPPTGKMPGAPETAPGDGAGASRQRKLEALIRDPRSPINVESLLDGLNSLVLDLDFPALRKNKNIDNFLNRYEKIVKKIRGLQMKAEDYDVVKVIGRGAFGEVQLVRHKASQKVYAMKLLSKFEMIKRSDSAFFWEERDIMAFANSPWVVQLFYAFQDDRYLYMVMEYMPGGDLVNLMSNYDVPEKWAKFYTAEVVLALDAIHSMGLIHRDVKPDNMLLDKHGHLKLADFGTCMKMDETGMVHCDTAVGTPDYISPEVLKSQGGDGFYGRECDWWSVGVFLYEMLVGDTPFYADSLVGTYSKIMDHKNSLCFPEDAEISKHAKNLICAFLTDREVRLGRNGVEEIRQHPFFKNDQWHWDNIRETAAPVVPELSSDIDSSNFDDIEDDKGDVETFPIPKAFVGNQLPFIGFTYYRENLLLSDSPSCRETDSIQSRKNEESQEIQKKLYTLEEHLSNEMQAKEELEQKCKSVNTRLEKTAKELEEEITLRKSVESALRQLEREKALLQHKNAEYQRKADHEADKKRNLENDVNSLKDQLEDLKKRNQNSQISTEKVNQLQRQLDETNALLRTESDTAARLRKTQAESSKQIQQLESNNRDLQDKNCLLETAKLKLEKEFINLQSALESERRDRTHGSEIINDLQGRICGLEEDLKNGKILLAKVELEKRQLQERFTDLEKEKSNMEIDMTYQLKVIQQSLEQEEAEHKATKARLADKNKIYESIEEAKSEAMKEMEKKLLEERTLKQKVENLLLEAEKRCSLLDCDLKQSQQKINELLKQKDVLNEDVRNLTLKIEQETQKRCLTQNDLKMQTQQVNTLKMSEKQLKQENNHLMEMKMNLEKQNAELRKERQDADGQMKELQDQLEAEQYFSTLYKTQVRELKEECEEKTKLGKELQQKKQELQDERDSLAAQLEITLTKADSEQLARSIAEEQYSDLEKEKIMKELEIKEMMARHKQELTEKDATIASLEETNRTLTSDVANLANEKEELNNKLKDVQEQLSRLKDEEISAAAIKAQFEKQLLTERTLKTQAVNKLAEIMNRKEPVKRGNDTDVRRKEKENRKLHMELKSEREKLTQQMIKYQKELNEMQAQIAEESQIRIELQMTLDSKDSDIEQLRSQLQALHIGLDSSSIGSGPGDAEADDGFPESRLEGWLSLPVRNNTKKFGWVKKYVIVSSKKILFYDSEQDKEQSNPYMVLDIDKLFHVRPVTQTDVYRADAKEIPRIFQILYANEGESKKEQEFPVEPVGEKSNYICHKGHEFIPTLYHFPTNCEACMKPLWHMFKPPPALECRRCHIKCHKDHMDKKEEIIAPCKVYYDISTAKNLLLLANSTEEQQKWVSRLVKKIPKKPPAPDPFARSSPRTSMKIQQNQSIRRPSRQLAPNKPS
Experimental: as §1, §2

[2] = target: T4, GST-tagged human ROCK1 catalytic domain 1-477 (Homo sapiens, UniProt Q13464); test: Isolated Enzyme Assay, ROCK1 (LANCE Ultra ULight-CREBtide FRET); format: biochemical; settings: 30 μM highest concentration tested, read-out: Results from Isolated Enzyme Assay IC50 (μM) ROCK1
T4 construct: human ROCK1 catalytic domain 1-477 from Carna Biosciences (cat #01-109); purchased Carna Biosciences 01-109; host or cells: baculovirus expression system
T4 sequence (Q13464 1-477): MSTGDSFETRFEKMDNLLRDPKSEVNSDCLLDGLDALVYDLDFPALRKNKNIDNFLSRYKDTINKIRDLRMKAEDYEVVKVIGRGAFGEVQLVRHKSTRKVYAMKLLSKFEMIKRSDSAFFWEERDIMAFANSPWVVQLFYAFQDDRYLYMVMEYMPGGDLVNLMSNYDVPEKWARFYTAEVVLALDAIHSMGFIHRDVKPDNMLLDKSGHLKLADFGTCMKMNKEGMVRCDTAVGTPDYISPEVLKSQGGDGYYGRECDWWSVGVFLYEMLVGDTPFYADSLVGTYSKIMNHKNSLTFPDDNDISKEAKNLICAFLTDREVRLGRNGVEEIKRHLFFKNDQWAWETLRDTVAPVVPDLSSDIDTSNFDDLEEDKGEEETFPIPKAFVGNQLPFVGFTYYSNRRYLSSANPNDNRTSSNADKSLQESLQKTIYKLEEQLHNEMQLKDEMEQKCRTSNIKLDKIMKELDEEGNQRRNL
Experimental: as §3, §4, §5

[3] = phospho-MYPT1, 30 μM highest concentration tested

IC50 ([1]; isolated enzyme) [µM]	IC50 (ROCK2; [3]) [µM]	IC50 ([2]; isolated enzyme) [µM]	IC50 ([1]; isolated enzyme assay) [µM]	IC50 (ROCK2; class symbols) [µM]	IC50 ([2]; isolated enzyme assay) [µM]	IC50 (ROCK2; numeric bound) [µM]	SMILES	other results
			< 1	< 1	< 1		Cc1cc(C(=O)Nc2cccc(-c3nsc(Nc4ccc5[nH]ncc5c4Cl)n3)c2)n[nH]1 [IV-76]	IC50 (ROCK1; numeric bound): > 10 µM
			< 1	< 1	> 30		Cc1cc(C(=O)Nc2cc(-c3nsc(Nc4ccc5[nH]ncc5c4Cl)n3)ccn2)n(C)n1 [IV-58]	IC50 (ROCK1; numeric bound): > 10 µM
			< 1		< 1	> 10	Cn1nccc1C(=O)Nc1cccc(-c2nsc(Nc3ccc4[nH]ncc4c3C#N)n2)c1 [IV-33]	
			< 1		> 30	> 10	COc1ncc(C(=O)Nc2cc(-c3nsc(Nc4ccc5[nH]ncc5c4Cl)n3)ccn2)cn1 [IV-27]	
			> 30	1 to 15	> 30		O=C(Nc1cc(-c2nsc(Nc3ccc4[nH]ncc4c3Cl)n2)ccn1)c1ccccc1F [IV-60]	
			< 1		< 1	> 10	Cc1cn2cccc(-c3nsc(Nc4ccc5[nH]ncc5c4Cl)n3)c2n1 [IV-89]	
			< 1		< 1	> 10	Cc1cc(NC(=O)c2cnco2)cc(-c2nsc(Nc3ccc4[nH]ncc4c3Cl)n2)n1 [IV-25]	
			< 1	< 1	< 1		Cc1coc(-c2cc(CO)cc(-c3nsc(Nc4ccc5[nH]ncc5c4Cl)n3)c2)n1 [IV-68]	
			< 1		< 1	> 10	CC(=O)Nc1cc(-c2nsc(Nc3ccc4[nH]ncc4c3Cl)n2)cn(C)c1=O [IV-45]	
			< 1		> 30	> 10	O=C(Nc1cncc(-c2nsc(Nc3ccc4[nH]ncc4c3Cl)n2)c1)c1cnco1 [IV-24]	
			> 30		> 30	> 10	Cc1coc(-c2cncc(-c3nsc(Nc4ccc5[nH]ncc5c4Cl)n3)c2)n1 [IV-97]	
			< 1	1 to 15	> 30		COc1ccc(C(=O)Nc2cc(-c3nsc(Nc4ccc5[nH]ncc5c4Cl)n3)ccn2)cc1 [IV-108]	
			< 1		1 to 15	> 10	Cc1ncc(-c2nsc(Nc3ccc4[nH]ncc4c3Cl)n2)cc1NC(=O)c1ccnn1C [IV-69]	
			< 1		> 30	> 10	O=C(Nc1cc(-c2nsc(Nc3ccc4[nH]ncc4c3Cl)n2)ccn1)c1cnco1 [IV-28]	
			< 1		< 1	> 10	Cc1cc(NC(=O)c2cncs2)cc(-c2nsc(Nc3ccc4[nH]ncc4c3Cl)n2)n1 [IV-20]	
			< 1		> 30	> 10	Cn1cnc(C(=O)Nc2cc(-c3nsc(Nc4ccc5[nH]ncc5c4Cl)n3)ccn2)c1 [IV-29]	
			> 30	< 1	> 30		COc1cccc(C(=O)Nc2cc(-c3nsc(Nc4ccc5[nH]ncc5c4Cl)n3)ccn2)c1 [IV-64]	
			< 1	< 1	< 1		O=C(NC1CCC1)c1cc(-c2nsc(Nc3ccc4[nH]ncc4c3Cl)n2)ccc1F [IV-30]	
			< 1		< 1	> 10	O=C(Nc1cccc(-c2nsc(Nc3ccc4[nH]ncc4c3Cl)n2)c1)c1nc(O)co1 [IV-79]	
			< 1	1 to 15	< 1		Cn1ccnc1-c1cccc(-c2nsc(Nc3ccc4[nH]ncc4c3Cl)n2)c1 [IV-88]	
			> 30	1 to 15	> 30		COc1cccc(C(=O)Nc2cc(C)nc(-c3nsc(Nc4ccc5[nH]ncc5c4Cl)n3)c2)c1 [IV-44]	
			< 1	1 to 15	< 1		CC1(C)CN(c2cccc(-c3nsc(Nc4ccc5[nH]ncc5c4C#N)n3)c2)C(=O)O1 [IV-34]	
			< 1	< 1	1 to 15		Cn1cc(-c2nsc(Nc3ccc4[nH]ncc4c3Cl)n2)cc(NC(=O)c2ccccc2)c1=O [IV-39]	
			> 30		> 30	> 10	COc1ncc(-c2nsc(Nc3ccc4[nH]ncc4c3Cl)n2)cc1NC(=O)c1ccnn1C [IV-106]	
			> 30		> 30	> 10	Cc1cc(-c2nc(C)co2)cc(-c2nsc(Nc3ccc4[nH]ncc4c3Cl)n2)n1 [IV-105]	
			> 30	1 to 15	> 30		COc1ccc(C(=O)Nc2cc(C)nc(-c3nsc(Nc4ccc5[nH]ncc5c4Cl)n3)c2)cc1 [IV-43]	

Further lines, the compound ahead of its results:

SMILES	IC50 ([1]; isolated enzyme) [µM]	IC50 (ROCK2; [3]) [µM]	IC50 ([2]; isolated enzyme) [µM]	IC50 ([1]; isolated enzyme assay) [µM]	IC50 (ROCK2; class symbols) [µM]	IC50 ([2]; isolated enzyme assay) [µM]	IC50 (ROCK2; numeric bound) [µM]	other results
Cc1ccncc1C(=O)Nc1cccc(-c2nsc(Nc3ccc4[nH]ncc4c3Cl)n2)c1 [Compound A-4]	< 1	< 1	> 30					IC50 (ROCK1; [3]): 1 to 15 µM
Cn1cnc(C(=O)Nc2cccc(-c3nsc(Nc4ccc5[nH]ncc5c4Cl)n3)c2)c1 [Compound A-22]	< 1	< 1	< 1					
Cc1cc(C(=O)Nc2cccc(-c3nsc(Nc4ccc5[nH]ncc5c4Cl)n3)c2)n(C)n1 [Compound A-12]	< 1	< 1	< 1					
O=C(Nc1cccc(-c2nsc(Nc3ccc4[nH]ncc4c3Cl)n2)c1)c1cnco1 [Compound A-17]	< 1	< 1	< 1					
O=C(Nc1cccc(-c2nsc(Nc3ccc4[nH]ncc4c3Cl)n2)c1)c1cocn1 [Compound A-21]	< 1	< 1	< 1					
O=C(Nc1cccc(-c2nsc(Nc3ccc4[nH]ncc4c3Cl)n2)c1)c1cnc[nH]1 [Compound A-14]	< 1	< 1	< 1					
Cn1cncc1C(=O)Nc1cccc(-c2nsc(Nc3ccc4[nH]ncc4c3Cl)n2)c1 [Compound A-23]	< 1	< 1	< 1					
Cc1nn(C)cc1C(=O)Nc1cccc(-c2nsc(Nc3ccc4[nH]ncc4c3Cl)n2)c1 [Compound A-15]	< 1	< 1	< 1					
O=C(Nc1cc(-c2nsc(Nc3ccc4[nH]ncc4c3Cl)n2)ccn1)N1CCOCC1 [Compound A-19]	< 1	< 1	< 1					
Cn1nccc1C(=O)Nc1cc(-c2nsc(Nc3ccc4[nH]ncc4c3Cl)n2)ccn1 [Compound A-9]	< 1	< 1	> 30					
O=C(Nc1cccc(-c2nsc(Nc3ccc4[nH]ncc4c3Cl)n2)c1)c1cncs1 [Compound A-16]	< 1	< 1	< 1					
Cc1coc(-c2cccc(-c3nsc(Nc4ccc5[nH]ncc5c4Cl)n3)c2)n1 [Compound A-10]	< 1	< 1	< 1					
